Data taken from ChEMBL document CHEMBL5380869, “Discovery of an Oral, Beyond-Rule-of-Five Mcl-1 Protein-Protein Interaction Modulator with the Potential of Treating Hematological Malignancies” (J Med Chem, 2023).
pIC50, pKi: −log10 of the molar value. Values after ≈ are worked out from the molar mass of the structure shown. Active and inactive are the calls of the source. The rule behind the calls is not given here.

Experiments:
CYP1A2 [1] = target: T1, CYP1A2 (Homo sapiens, UniProt P05177); experiment: Induction of human CYP1A2 assessed as fold change at 10 uM by CYP450 induction assay; format: ADME; conditions: read-out: FC
T1 sequence (P05177 whole entry): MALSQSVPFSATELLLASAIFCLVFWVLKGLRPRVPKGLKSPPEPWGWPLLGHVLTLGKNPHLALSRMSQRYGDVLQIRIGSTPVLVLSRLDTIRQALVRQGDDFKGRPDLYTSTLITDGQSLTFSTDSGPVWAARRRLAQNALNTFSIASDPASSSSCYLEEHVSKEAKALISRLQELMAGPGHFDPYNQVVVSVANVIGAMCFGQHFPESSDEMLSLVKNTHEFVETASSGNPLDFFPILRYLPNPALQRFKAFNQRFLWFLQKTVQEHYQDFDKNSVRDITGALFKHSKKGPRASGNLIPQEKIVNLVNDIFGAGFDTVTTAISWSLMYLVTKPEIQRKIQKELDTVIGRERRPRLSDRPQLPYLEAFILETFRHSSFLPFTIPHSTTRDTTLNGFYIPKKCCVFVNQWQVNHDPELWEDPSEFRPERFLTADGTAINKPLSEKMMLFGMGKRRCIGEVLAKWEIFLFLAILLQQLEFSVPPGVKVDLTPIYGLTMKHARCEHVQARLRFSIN

Cytochrome P450 2C9 = Cytochrome P450 2C9 (Homo sapiens, UniProt P11712); experiment: Inhibition of human CYP2C9 assessed as fluorescent metabolites by CYP450 inhibition assay; format: ADME
[2] = Thermodynamic (equilibrium) solubility of the compound measured after 3 days agitation in pH 2 buffer by LC-MS/MS analysis; format: physicochemical; conditions: time 3 day, read-out: Therm_solubility
[3] = Inhibition of terbium-labelled Mcl-1 (unknown origin)/Bim BH3 peptide (H3N-(C/Cy5Mal)-WIAQELRRIGDEFN-OH) (unknown origin) interaction assessed as displacement of Cy5-labeled Bim BH3 peptide by TR-HTRF assay
[4] = Thermodynamic (equilibrium) solubility of the compound measured after 3 days agitation in pH 7 buffer by LC-MS/MS analysis; format: physicochemical; conditions: time 3 day, read-out: Therm_solubility
[5] = Fraction unbound in mouse plasma at 5 uM incubated for 4.5 hrs by rapid equilibrium dialysis; format: ADME, cell-free
[6] = Intrinsic clearance in mouse liver microsomes measured upto 60 mins by LC-MS/MS analysis; format: ADME, Microsome; conditions: read-out: CLH
[7] = Cardiotoxicity risk in human iPSC-CM assessed as calcium transients at 1 uM by CTCM assay; format: toxicity, cell-based
[8] = Cardiotoxicity risk in human iPSC-CM assessed as calcium transients at 3 uM by CTCM assay; format: toxicity, cell-based
CYP3A4 [9] = target: T2, CYP3A4 (Homo sapiens, UniProt P08684); experiment: Induction of human CYP3A4 assessed as fold change at 1 uM by CYP450 induction assay; format: ADME; conditions: read-out: FC
[10] = Intrinsic clearance in human liver microsomes measured upto 60 mins by LC-MS/MS analysis; format: ADME, Microsome; conditions: read-out: CLH
[11] = Fraction unbound in human plasma at 5 uM incubated for 4.5 hrs by rapid equilibrium dialysis; format: ADME, cell-free
[12] = Lipophilicity, CHI logD of compound at pH 7.4 by UPLC-TOF analysis; format: physicochemical; conditions: buffer
Cytochrome P450 2D6 = Cytochrome P450 2D6 (Homo sapiens, UniProt P10635); experiment: Inhibition of human CYP2D6 assessed as fluorescent metabolites by CYP450 inhibition assay; format: ADME
Cytochrome P450 1A2 = target: T3, Cytochrome P450 1A2 (Homo sapiens, UniProt P05177); experiment: Inhibition of human CYP1A2 assessed as fluorescent metabolites by CYP450 inhibition assay; format: ADME
T3 sequence (P05177 whole entry): T1 sequence (P05177 whole entry)

MOLP-8 = experiment: Induction apoptosis in human MOLP8 cells assessed as cell killing measured after 2 hrs by Caspase-Glo 3/7 Assay; format: functional, cell-based; conditions: MOLP-8, 2 h
Cytochrome P450 2C19 = Cytochrome P450 2C19 (Homo sapiens, UniProt P33261); experiment: Inhibition of human CYP2C19 assessed as fluorescent metabolites by CYP450 inhibition assay; format: ADME
[13] = Clearance in CD1 mouse at 1 mg/kg, iv administered as bolus dose; format: ADME, organism-based; conditions: in vivo
[14] = Fraction absorbed in CD1 mouse at 5 mg/kg, po administered as bolus dose; format: ADME, organism-based; conditions: in vivo, read-out: Fabs
[15] = Toxicity in NSG mouse xenografted with human MOLM-13 cells at 10 mg/kg, po; format: organism-based; conditions: in vivo
MOLM-13 [16] = experiment: In vivo inhibition of Mcl-1 in human MOLM-13 cells sc implanted in NSG mouse assessed as disruption of Mcl-1/Bim complex in tumor at 10 mg/kg, po; format: functional, organism-based
[17] = Hepatic intrinsic clearance in human hepatocytes measured per 10^6 cells at 1 uM measured upto 120 mins by LC-MS/MS analysis; format: ADME, cell-based, Hepatocyte; conditions: read-out: CLH
[18] = Oral bioavailability in CD1 mouse at 5 mg/kg administered as bolus dose; format: ADME, organism-based; conditions: in vivo
[19] = Metabolic stability in human hepatocytes assessed as half life at 1 uM measured by LC-MS/MS analysis; format: ADME, cell-based, Hepatocyte
[20] = Initial plasma concentration in CD1 mouse at 1 mg/kg, iv administered as bolus dose; format: ADME, organism-based
[21] = Volume of distribution at steady state in CD1 mouse at 1 mg/kg, iv administered as bolus dose; format: ADME, organism-based; conditions: in vivo, read-out: Vdss
[22] = Cardiotoxicity risk in human iPSC-CM assessed as calcium transients at 0.1 uM by CTCM assay; format: toxicity, cell-based
[23] = AUClast in CD1 mouse at 5 mg/kg, po administered as bolus dose; format: ADME, organism-based; set-up: dose 5 mg/kg, route po; conditions: in vivo
[24] = Cardiotoxicity risk in human iPSC-CM assessed as calcium transients at 0.3 uM by CTCM assay; format: toxicity, cell-based
CYP1A2 [25] = target: T1, CYP1A2; experiment: Induction of human CYP1A2 assessed as fold change at 1 uM by CYP450 induction assay; format: ADME; conditions: read-out: FC
Cytochrome P450 2C8 = target: T4, Cytochrome P450 2C8 (Homo sapiens, UniProt P10632); experiment: Inhibition of human CYP2C8 assessed as fluorescent metabolites by CYP450 inhibition assay; format: ADME
T4 sequence (P10632 whole entry): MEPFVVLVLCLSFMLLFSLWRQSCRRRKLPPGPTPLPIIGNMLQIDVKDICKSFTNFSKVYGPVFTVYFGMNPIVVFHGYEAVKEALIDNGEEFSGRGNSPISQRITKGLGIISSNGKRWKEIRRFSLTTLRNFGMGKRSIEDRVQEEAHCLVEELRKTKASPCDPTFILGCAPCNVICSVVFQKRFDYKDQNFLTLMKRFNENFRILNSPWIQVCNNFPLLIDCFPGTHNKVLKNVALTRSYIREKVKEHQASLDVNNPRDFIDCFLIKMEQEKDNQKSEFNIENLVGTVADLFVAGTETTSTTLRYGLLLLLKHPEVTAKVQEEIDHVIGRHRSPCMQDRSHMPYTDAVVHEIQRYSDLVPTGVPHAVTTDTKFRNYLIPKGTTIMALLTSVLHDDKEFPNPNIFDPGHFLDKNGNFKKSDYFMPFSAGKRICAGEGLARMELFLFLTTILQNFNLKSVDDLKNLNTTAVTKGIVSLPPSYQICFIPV

MOLM-13 [26] = experiment: In vivo inhibition of Mcl-1 in human MOLM-13 cells sc implanted in NSG mouse assessed as disruption of Mcl-1/Bak complex in tumor at 10 mg/kg, po; format: functional, organism-based
[27] = Hepatic intrinsic clearance in Swiss CD-1 mouse hepatocytes measured per 10^6 cells at 1 uM measured upto 120 mins by LC-MS/MS analysis; format: ADME, cell-based, Hepatocyte; conditions: read-out: CLH
[28] = Metabolic stability in Swiss CD-1 mouse hepatocytes assessed as half life at 1 uM measured by LC-MS/MS analysis; format: ADME, cell-based, Hepatocyte
[29] = Cmax in CD1 mouse at 5 mg/kg, po administered as bolus dose; format: ADME, organism-based; set-up: dose 5 mg/kg, route po; conditions: in vivo
[30] = Half life in CD1 mouse at 1 mg/kg, iv administered as bolus dose; format: ADME, organism-based; conditions: in vivo
[31] = Tmax in CD1 mouse at 5 mg/kg, po administered as bolus dose; format: ADME, organism-based; conditions: in vivo
CYP3A4 [32] = target: T2, CYP3A4; experiment: Induction of human CYP3A4 assessed as fold change at 10 uM by CYP450 induction assay; format: ADME; conditions: read-out: FC

T2 sequence (P08684 whole entry): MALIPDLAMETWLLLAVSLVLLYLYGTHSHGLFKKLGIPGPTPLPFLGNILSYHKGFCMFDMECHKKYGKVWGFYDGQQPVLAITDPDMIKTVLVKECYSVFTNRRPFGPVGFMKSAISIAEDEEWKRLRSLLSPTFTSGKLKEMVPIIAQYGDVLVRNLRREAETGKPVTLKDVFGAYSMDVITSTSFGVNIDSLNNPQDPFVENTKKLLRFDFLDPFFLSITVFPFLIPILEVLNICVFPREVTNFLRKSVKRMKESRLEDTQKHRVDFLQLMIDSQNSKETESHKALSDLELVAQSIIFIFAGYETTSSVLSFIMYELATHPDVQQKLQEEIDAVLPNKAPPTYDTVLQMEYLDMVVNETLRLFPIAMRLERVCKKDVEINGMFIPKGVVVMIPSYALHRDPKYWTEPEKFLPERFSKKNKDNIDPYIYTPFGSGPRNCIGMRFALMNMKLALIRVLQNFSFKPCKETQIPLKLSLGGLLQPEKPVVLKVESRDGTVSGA
Chain of Cytochrome P450 2D6 (P10635 whole entry): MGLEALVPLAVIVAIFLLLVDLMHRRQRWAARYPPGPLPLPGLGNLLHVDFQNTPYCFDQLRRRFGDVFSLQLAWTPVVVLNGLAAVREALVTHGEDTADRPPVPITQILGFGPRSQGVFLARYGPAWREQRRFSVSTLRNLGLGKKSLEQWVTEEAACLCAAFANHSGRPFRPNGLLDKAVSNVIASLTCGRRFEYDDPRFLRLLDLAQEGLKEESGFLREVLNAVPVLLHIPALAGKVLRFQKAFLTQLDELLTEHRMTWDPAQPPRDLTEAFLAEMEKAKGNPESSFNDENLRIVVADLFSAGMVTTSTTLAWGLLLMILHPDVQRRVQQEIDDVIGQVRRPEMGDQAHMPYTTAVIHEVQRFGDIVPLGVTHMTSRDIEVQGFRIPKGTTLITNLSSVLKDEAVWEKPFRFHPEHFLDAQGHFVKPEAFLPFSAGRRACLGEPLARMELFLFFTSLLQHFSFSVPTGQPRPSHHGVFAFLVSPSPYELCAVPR
Chain of Cytochrome P450 2C19 (P33261 whole entry): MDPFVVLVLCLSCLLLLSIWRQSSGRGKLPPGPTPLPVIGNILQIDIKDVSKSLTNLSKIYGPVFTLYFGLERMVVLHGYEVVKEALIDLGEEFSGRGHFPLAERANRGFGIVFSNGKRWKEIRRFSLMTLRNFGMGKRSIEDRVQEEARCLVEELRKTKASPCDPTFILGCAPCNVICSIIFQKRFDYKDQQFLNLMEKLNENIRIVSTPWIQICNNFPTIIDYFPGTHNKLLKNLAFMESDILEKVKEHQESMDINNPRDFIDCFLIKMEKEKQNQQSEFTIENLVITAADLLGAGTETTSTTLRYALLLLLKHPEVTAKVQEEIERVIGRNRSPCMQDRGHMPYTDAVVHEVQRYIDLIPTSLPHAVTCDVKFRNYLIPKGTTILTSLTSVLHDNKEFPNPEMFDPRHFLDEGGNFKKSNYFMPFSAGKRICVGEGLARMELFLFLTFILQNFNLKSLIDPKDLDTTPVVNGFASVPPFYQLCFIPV
Chain of Cytochrome P450 2C9 (P11712 whole entry): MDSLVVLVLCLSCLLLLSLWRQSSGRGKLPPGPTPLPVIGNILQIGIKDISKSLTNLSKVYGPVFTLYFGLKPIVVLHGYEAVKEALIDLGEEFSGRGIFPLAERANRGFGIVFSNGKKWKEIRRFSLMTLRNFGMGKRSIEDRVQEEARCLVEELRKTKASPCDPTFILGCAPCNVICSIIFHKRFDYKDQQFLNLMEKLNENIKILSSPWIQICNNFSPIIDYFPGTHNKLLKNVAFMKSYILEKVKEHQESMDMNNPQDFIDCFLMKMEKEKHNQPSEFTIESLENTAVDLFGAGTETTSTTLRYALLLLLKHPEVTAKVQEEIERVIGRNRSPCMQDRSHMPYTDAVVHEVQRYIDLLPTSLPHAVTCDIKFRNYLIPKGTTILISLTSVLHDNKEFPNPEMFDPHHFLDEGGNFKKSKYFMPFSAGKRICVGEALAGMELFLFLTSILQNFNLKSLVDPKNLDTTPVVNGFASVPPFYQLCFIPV

What does the source list for `COc1nn(C)cc1C(=O)N[S@@]1(=O)=NC(=O)c2ccc3c(c2)N(C[C@@H]2CCO[C@H]2[C@@](CN2CCN4CCOC[C@@H]4C2)(OC)/C(F)=C/C[C@H](C)C1)C[C@@]1(CCCc2cc(Cl)ccc21)CO3`?
fold induction at 10 µM (CYP1A2 [1]): 1.1; inhibition (INH) (Cytochrome P450 2C9): Not Active; solubility thermodynamic at 72 h [2]: 516 µM (≈ 477 µg/mL); pKi [3]: 10.96; solubility thermodynamic at 72 h [4]: 561 µM (≈ 519 µg/mL); Fu [5]: 0.08%; microsomal CLint [6]: < 7.7 µL/min/mg; Activity [7]: Non-Toxic; Activity [8]: Non-Toxic; fold induction at 1 µM (CYP3A4 [9]): 1; microsomal CLint [10]: < 7.7 µL/min/mg; Fu [11]: 0.11%; chromatographic logD [12]: 2.9; inhibition (INH) (Cytochrome P450 2D6): Not Active; inhibition (INH) (Cytochrome P450 1A2): Not Active; AC50 (MOLP-8): 23.2 nM; inhibition (INH) (Cytochrome P450 2C19): Not Active

What does the source list for `COc1nn(C)cc1C(=O)N[S@@]1(=O)=NC(=O)c2ccc3c(c2)N(C[C@@H]2CCO[C@H]2[C@@H](OC)/C(F)=C/C[C@H](C)C1)C[C@@]1(CCCc2cc(Cl)ccc21)CO3`?
clearance [13]: 25 mL/min/kg; Fa [14]: 99%; inhibition (INH) (Cytochrome P450 2C9): Not Active; solubility thermodynamic at 72 h [2]: < 0.1 µM; Activity [15]: Non-Toxic; pKi [3]: 10.96; solubility thermodynamic at 72 h [4]: 520 µM (≈ 401 µg/mL); Fu [5]: 0.02%; inhibition (MOLM-13 [16]): Active; hepatocyte CLint at 1 µM [17]: 1.99 µL/min/1e6 cells; microsomal CLint [6]: 15 µL/min/mg; bioavailability [18]: 78%; t1/2 [19]: 5.8 h; C0 [20]: 574 ng/mL; Activity [7]: Non-Toxic; Activity [8]: Non-Toxic; fold induction at 1 µM (CYP3A4 [9]): 1.3; Vd [21]: 3.01 L/kg; microsomal CLint [10]: < 7.7 µL/min/mg; Fu [11]: 0.05%; chromatographic logD [12]: 3; Activity [22]: Non-Toxic; AUC(0-t) [23]: 2520 ng·h/mL; Activity [24]: Non-Toxic; inhibition (INH) (Cytochrome P450 2D6): Not Active; fold induction at 1 µM (CYP1A2 [25]): 0.95; pIC50 (Cytochrome P450 2C8): 5.30; inhibition (INH) (Cytochrome P450 1A2): Not Active; inhibition (MOLM-13 [26]): Active; hepatocyte CLint at 1 µM [27]: < 1.24 µL/min/1e6 cells; AC50 (MOLP-8): 44 nM; half-life at 1 µM [28]: > 9.33 h; Cmax [29]: 578 ng/mL; half-life [30]: 1.81 h; Tmax [31]: 2.33 h; inhibition (INH) (Cytochrome P450 2C19): Not Active; fold induction at 10 µM (CYP3A4 [32]): 4.4
